Measured values taken from ChEMBL document CHEMBL1128147, “Mechanistic support for the stepwise process for inactivation of class A -lactamases by clavulanate” (Bioorg Med Chem Lett, 1995).

Assays:
[1] = molecular target: Beta-lactamase (Enterobacter cloacae) (UniProt P05364)
Description: K2 for inactivation of TEM-1 beta-lactamase

[2] = molecular target: Beta-lactamase (Enterobacter cloacae) (UniProt P05364); remark: listed apart in the source
Description: Ks for inactivation of TEM-1 beta-lactamase

[3] = molecular target: Beta-lactamase (Enterobacter cloacae) (UniProt P05364); remark: listed apart in the source
Description: Kcat for inactivation of TEM-1 beta-lactamase

[4] = Partition ratio between Kcat and Kinact was determined
[5] = molecular target: Beta-lactamase (Enterobacter cloacae) (UniProt P05364); remark: listed apart in the source
Description: K3 for inactivation of TEM-1 beta-lactamase

[6] = tested on: Beta-lactamase TEM (Escherichia coli); experiment: Effect on rate of recovery of TEM-2 beta lactamase from transient inhibition
[7] = Partition ratio between Kcat (for beta lactamase) and Kinact (for beta lactamase) was determined

Beta-lactamase (Enterobacter cloacae), sequence (P05364 21-381 limits assumed): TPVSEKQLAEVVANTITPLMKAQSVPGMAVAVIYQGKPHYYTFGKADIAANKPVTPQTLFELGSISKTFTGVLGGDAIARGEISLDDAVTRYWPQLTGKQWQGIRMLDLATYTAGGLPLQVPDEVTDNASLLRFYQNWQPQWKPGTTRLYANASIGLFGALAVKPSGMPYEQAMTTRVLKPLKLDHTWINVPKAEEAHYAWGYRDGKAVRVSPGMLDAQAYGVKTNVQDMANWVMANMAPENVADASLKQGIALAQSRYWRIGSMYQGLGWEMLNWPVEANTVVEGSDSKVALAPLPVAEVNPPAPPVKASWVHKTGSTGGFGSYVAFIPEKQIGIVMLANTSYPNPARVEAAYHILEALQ

In the case of `O=C(O)[C@H]1C(CCO)O[C@@H]2CC(=O)N21` (some centres not stated), the K2 [1] was 42 s⁻¹, the Ks [2] was 11.6 µM and the k cat [3] was 8 s⁻¹. It also gave a Ratio [4] of 3.7e+06 and a K3 [5] of 10 s⁻¹.
Molecule `O=C1C[C@H]2O/C(=C\CO)[C@H](CO)N12` has a Rate of recovery [6] of 0.002 s⁻¹.
`C/C=C1\O[C@@H]2CC(=O)N2[C@H]1C(=O)O` showed a Ratio [7] of 390.
